Assay [1] relates to T98G. Put plainly: MTT colorimetric assay, overall cell growth. Particulars: Homo sapiens, 72 h, read-out: IC50 (µM) In Vitro Growth Inhibitory Concentrations (MTT Colorimetric Assay) T98G.
Protocol: The compounds and particularly dihydrobenzopyran, thiochroman, tetrahydroquinoleine and tetrahydronaphthalene derivatives of the invention were evaluated for their anti-proliferative effect (by means of the colorimetric MTT assay), in the following human glioblastoma cell-lines U373, T98G and Hs683 and in the mouse glioma cell line GL261. Normal brain cells (primocultures from newborn mice) were also used in order to determine the bioselectivity (B^N/C) of the compounds of interest, i.e. the ratio between the concentrations that inhibits 50% of the growth of brain cancer (C) cells (glioma cells) and the concentration that inhibits 50% of the growth of normal (N) brain cells (primocultures of astrocytes).
(§2) MTT tests were performed in order to rapidly, i.e. within 5 days, measure the effect of compounds of this invention on the overall cell growth. The test measured the number of metabolically active living cells that were able to transform the yellow product 3-(4,5-dimethylthiazol-2-yl)-2,5-diphenyl tetrazolium bromide (herein referred as MTT) into the blue product formazan dye by mitochondrial reduction. The amount of formazan obtained at the end of the experiment, measured by means of a spectrophotometer, is directly proportional to the number of living cells. Optical density determination thus enabled a quantitative measurement of the effect of the investigated compounds as compared to the control condition (untreated cells) and/or to other reference compounds.
(§3) Three human cancer cell lines were used in the following MTT tests.
(§4) To perform the assay, cells were allowed to grow in 96-well micro-wells with a flat bottom with an amount of 100 µl of cell suspension per well with 1,000 to 8,000 cells/well depending on the cell type used. Each cell line was seeded in its appropriate culture medium.
(§5) The detailed experimental procedure was the following: after a 24-hour period of incubation at 37°C, the culture medium was replaced by 100 µl of fresh medium in which the tested compound was previously dissolved, at the following molar concentrations: 10^-8 M, 5.10^-8 M, 10^-7 M, 5.10^-7 M, 10^-6 M, 5.10^-6 M, 10^-5 M, 5.10^-5 M and 10^-4 M. Each experiment was performed in sextuplicate (6 times).
The micro-wells were subsequently incubated during 3 hours and a half at 37°C and centrifuged at 1300 rpm during 10 minutes. MTT was removed and formazan crystals formed were dissolved in 100 µl DMSO. The micro-wells were shaken for 5 minutes and read on a spectrophotometer at wavelengths of 570 nm (maximal formazan absorbance).
(§6) For each experimental condition, the mean optical density was calculated, allowing the determination of the percentage of remaining living cells in comparison to the control.
Assay [2] has as its system Hs683. Briefly: MTT colorimetric assay, overall cell growth. The format is cell-based. The following applies: Homo sapiens, Hs 683; Hs683 cells, 72 hours of incubation; read-out: IC50 (µM) In Vitro Growth Inhibitory Concentrations (MTT Colorimetric Assay) Hs683.
Protocol: (§7) The compounds and particularly dihydrobenzopyran, thiochroman, tetrahydroquinoleine and tetrahydronaphthalene derivatives of the invention were evaluated for their anti-proliferative effect (by means of the colorimetric MTT assay), in the following human glioblastoma cell-lines U373, T98G and Hs683 and in the mouse glioma cell line GL261. Normal brain cells (primocultures from newborn mice) were also used in order to determine the bioselectivity (B^N/C) of the compounds of interest, i.e. the ratio between the concentrations that inhibits 50% of the growth of brain cancer (C) cells (glioma cells) and the concentration that inhibits 50% of the growth of normal (N) brain cells (primocultures of astrocytes). The ideal situation to be reached is a bioselectivity of B^N/C > 10.
as §2, §3, §4, §5
(§8) After 72 hours of incubation at 37°C with (experimental conditions) or without (control condition) the compound to be tested, the medium was replaced by 100 µl MTT dissolved in RPMI (1640 without phenol red) at a concentration of 0.5 mg/ml. The micro-wells were subsequently incubated during 3 hours and a half at 37°C and centrifuged at 1300 rpm during 10 minutes. MTT was removed and formazan crystals formed were dissolved in 100 µl DMSO. The micro-wells were shaken for 5 minutes and read on a spectrophotometer at wavelengths of 570 nm (maximal formazan absorbance).
as §6
Assay [3] has as its system three Human Glioma Cell Lines. Briefly: MTT colorimetric assay, mean over the three glioma cell lines. Particulars: mean of the three human glioma cell lines, 72h (Table 2); read-out: Mean IC50 MTT values ± SEM (µM) Glioma - Human Brain cancer cells (I - 72h). In kind it is cell-based. The method, then: (§1) Table 2: Bioselectivity determined by dividing the IC50 obtained with glioma cell lines by the IC50 obtained with normal astrocytes. Bioselectivity was determined only for those compounds whose mean + SEM values on the three human glioma cell lines were ≤ 20 µM.
For orientation: Tetrazolium dyes change colour on reduction, which living cells bring about.

Assay [4] concerns Astrocytes - Mouse normal brain cells. Briefly: MTT colorimetric assay on normal astrocytes (bioselectivity). Particulars: Astrocyte, primocultures of astrocytes from newborn mice, 72h, read-out: Mean IC50 MTT values ± SEM (µM) Astrocytes - Mouse normal brain cells (II - 72h). The format is cell-based.
Assay [5] has as its system U373. Briefly: MTT colorimetric assay, overall cell growth. The format is cell-based. Particulars: Homo sapiens, U373 MG; U373 cells, 72 hours of incubation; read-out: IC50 (µM) In Vitro Growth Inhibitory Concentrations (MTT Colorimetric Assay) U373.
Protocol: as §7, §2, §3, §4, §5, §8, §6
In assay [6] the test system is human U373 glioma cell line. Put plainly: Quantitative videomicroscopy (computer-assisted phase-contrast microscopy). In kind it is cell-based. The following applies: U373 cells treated at the IC50 concentration from MTT, filmed for 72h; cytostatic versus cytotoxic effects. The text has this: In addition, the inventors could establish that the compounds of the invention act through a non-apoptosis-related mechanism thanks to a unique experimental approach used by the inventors, i.e. computer-assisted phase-contrast microscopy (quantitative videomicroscopy), making them good candidates as anti-cancer drugs for treating apoptosis-resistant tumor or cancer cells and for overcoming problems linked to the known anti-cancer drugs.
As the MTT test is based on the mitochondria functions, we also investigated the effects of the compounds according to the invention on cell proliferation, migration and morphology by means of a cellular imaging approach (Debeir et al., Cytometry 60:29-40, 2004; Debeir et al., IEEE Trans Med Imaging 24:697-711, 2005) in the human U373 glioma cell line, which is apoptosis-resistant but autophagy-sensitive (Lefranc F et al., Neurosurgery 2008).
Cellular imaging relied on the use of computer-assisted phase-contrast microscopy making possible to film the behaviour of living cells in culture dishes for several days.
Cells were seeded in a 25-cm^2 flask at a low density, treated or not with the compounds of the invention (at their IC50 concentration determined previously by MTT tests) and filmed thereafter for a period of 72h. The experiment was conducted in triplicate.
The behaviour of the cells, in terms of morphology, growth and death were thus investigated. The effect on the overall growth was measured by counting the number of cells on the first (0h) and the last image (72h) of each film. The global growth ratio (GGR) was then deduced by dividing the number of cells on the last image by the number of cells on the first image. The ratio GGRtreated cells / GGRcontrol cells, was further calculated thereby obtaining a value that describes the effect of compounds of the present invention on the overall cell growth.
The methodology is fully described and validated in Debeir et al., 2008, Exp Cell Res 314:2985-2998 and Mathieu et al., 2009, J Cell Mol Med, Feb 20, 2009.
Thanks to the quantitative videomicroscopy (QVM) approach, we classified the compounds into 4 distinctive classes on the basis of their cytostatic versus cytotoxic effects (Table 3). • Class I: actually cytostatic for 3 days (< 10 % of cell death at the 3rd day) • Class II: cytostatic but becomes cytotoxic with < 10% cell death on the 2nd day and > 20% of cell death on the 3rd day • Class III: cytostatic but rapidly becomes cytotoxic with < 10% cell death on the 1st day, > 20% of cell death on the 2nd day and > 50% of cell death on the 3rd day • Class IV: cytotoxic (> 50% of cell death on the first day)
In Fig. 1a, compounds of example 14 (5 µM), example 19 (20 µM) and example 23 (5 µM) belong to QVM Class I because they display cytostatic effects on human U373 GBM cells during the whole duration of the experiment. Cytostatic effects mean that < 10 % of cell death was recorded at the end of the experiment, i.e. at the end of the 3rd day. QVM analyses enable the global growth ratio (GGR) to be calculated in each experiment. The GGR index is obtained by dividing the number of cells in the last image by the number of cells in the first image of the experiment, knowing that 1080 images are taken during the 72 h-period of observation. The ratio GGR^treated cells / GGR^control cells was further calculated thereby obtaining a value that describes the effect of compounds on the overall cell growth. Thus, a GGR index of 0.2 means that they remain only 20% of treated cells compare to the control cells at the end of the experiment.

Assay [7] deals with Astrocytes - Mouse normal brain cells. Briefly: MTT colorimetric assay on normal astrocytes (bioselectivity). In kind it is cell-based. The protocol:
as §1

For `CC(C)(C)OC(=O)Nc1ccc2c(c1)C(NC(=O)Nc1cccc([N+](=O)[O-])c1)CC(C)(C)O2` (racemic) [Example 23, R/S-N-3-nitrophenyl-N'-(6-tert-butoxycarbonylamino-3,4-dihydro-2,2-dimethyl-2H-1-benzopyran-4-yl)urea], the IC50 is 7 µM in assay [1]; 16 µM in assay [2]; 8 ± 4 µM in assay [3]; less than 40 µM in assay [4]; 1 µM in assay [5]. Moreover, the “QVM Class” value in assay [6] is “I (Class I: actually cytostatic for 3 days (< 10 % of cell death at the 3rd day))”. Further, in assay [7], the “Bioselectivity (I / II)” value was less than 5.
Turning to `CC(C)(C)OC(=O)Nc1ccc2c(c1)C(NC(=O)Nc1cc(C(F)(F)F)cc(C(F)(F)F)c1)CC(C)(C)O2` (racemic) [Example 29, R/S-N-3,5-di(trifluoromethyl)phenyl-N'-(6-tert-butoxycarbonylamino-3,4-dihydro-2,2-dimethyl-2H-1-benzopyran-4-yl)urea], the IC50 is 5 µM in assay [1]; 3 µM in assay [2]; 4 ± 1 µM in assay [3]; roughly 20 µM in assay [4]; 4 µM in assay [5]. In assay [6], the “QVM Class” value is on record as “I (Class I: actually cytostatic for 3 days (< 10 % of cell death at the 3rd day))”. For the same compound, in assay [7], the “Bioselectivity (I / II)” value is “∼ 5”.
As for `CC(C)(C)OC(=O)Nc1ccc2c(c1)C(NC(=O)Nc1ccc(C(F)(F)F)cc1Cl)CC(C)(C)O2` (racemic) [Example 30, R/S-N-2-chloro-4-trifluoromethylphenyl-N'-(6-tert-butoxycarbonylamino-3,4-dihydro-2,2-dimethyl-2H-1-benzopyran-4-yl)urea], the IC50 in assay [1] came out at 34 µM; in assay [2], 25 µM; in assay [5], 26 µM. Also, the “QVM Class” value in assay [6] is “II (Class II: cytostatic but becomes cytotoxic with < 10% cell death on the 2nd day and > 20% of cell death on the 3rd day)”.
As to `CC(C)(C)OC(=O)Nc1ccc2c(c1)C(NC(=O)Nc1cc(Cl)cc(Cl)c1)CC(C)(C)O2` (racemic) [Example 26, R/S-N-3,5-dichlorophenyl-N'-(6-tert-butoxycarbonylamino-3,4-dihydro-2,2-dimethyl-2H-1-benzopyran-4-yl)urea], the IC50 in assay [1] was 12 µM; in assay [2], 9 µM; in assay [3], 9 ± 2 µM; in assay [4], roughly 40 µM; in assay [5], 6 µM. In assay [6], the “QVM Class” value was “II (Class II: cytostatic but becomes cytotoxic with < 10% cell death on the 2nd day and > 20% of cell death on the 3rd day)”. In addition, the “Bioselectivity (I / II)” value in assay [7] is recorded as less than 5.
On to `CC(C)(C)OC(=O)Nc1ccc2c(c1)C(NC(=O)Nc1ccc(C#N)cc1)CC(C)(C)O2` (racemic) [Example 15, R/S-N-4-cyanophenyl-N'-(6-tert-butoxycarbonylamino-3,4-dihydro-2,2-dimethyl-2H-1-benzopyran-4-yl)urea], for which the IC50 is 26 µM in assay [1]; 18 µM in assay [2]; 18 ± 5 µM in assay [3]; greater than 200 µM in assay [4]; 10 µM in assay [5]. Moreover, the “QVM Class” value in assay [6] is listed as “I (Class I: actually cytostatic for 3 days (< 10 % of cell death at the 3rd day))”. Besides, in assay [7], the “Bioselectivity (I / II)” value is greater than 10.
For `CC(C)(C)OC(=O)Nc1ccc2c(c1)C(NC(=O)Nc1ccc(C(F)(F)F)cc1)CC(C)(C)O2` (racemic) [Example 24, R/S-N-4-trifluoromethylphenyl-N'-(6-tert-butoxycarbonylamino-3,4-dihydro-2,2-dimethyl-2H-1-benzopyran-4-yl)urea], the IC50 is 15 µM in assay [1]; 11 µM in assay [2]; 12 ± 1 µM in assay [3]; greater than 120 µM in assay [4]; 10 µM in assay [5]. In addition, in assay [6], the “QVM Class” value is “I (Class I: actually cytostatic for 3 days (< 10 % of cell death at the 3rd day))”. The “Bioselectivity (I / II)” value in assay [7] is recorded as greater than 10.
Regarding `CC(C)(C)OC(=O)Nc1ccc2c(c1)C(NC(=O)Nc1cccc(C(F)(F)F)c1)CC(C)(C)O2` (racemic) [Example 25, R/S-N-3-trifluoromethylphenyl-N'-(6-tert-butoxycarbonylamino-3,4-dihydro-2,2-dimethyl-2H-1-benzopyran-4-yl)urea], the IC50 in assay [1] was 21 µM; in assay [2], 8 µM; in assay [3], 13 ± 4 µM; in assay [4], roughly 20 µM; in assay [5], 9 µM. The “QVM Class” value in assay [6] was “II (Class II: cytostatic but becomes cytotoxic with < 10% cell death on the 2nd day and > 20% of cell death on the 3rd day)”. Moreover, in assay [7], the “Bioselectivity (I / II)” value is less than 2.
As to `CC(C)(C)OC(=O)Nc1ccc2c(c1)C(NC(=O)Nc1ccccc1[N+](=O)[O-])CC(C)(C)O2` (racemic) [Example 27, R/S-N-2-nitrophenyl-N'-(6-tert-butoxycarbonylamino-3,4-dihydro-2,2-dimethyl-2H-1-benzopyran-4-yl)urea], the results for the IC50 in assay [1], in assay [2] and in assay [5] were 22 µM, 13 µM and 12 µM, respectively. The “QVM Class” value in assay [6] is on record as “I (Class I: actually cytostatic for 3 days (< 10 % of cell death at the 3rd day))”.
In the case of `CC(C)(C)OC(=O)Nc1ccc2c(c1)C(NC(=O)Nc1ccc(Cl)cc1C(F)(F)F)CC(C)(C)O2` (racemic) [Example 37, R/S-N-4-chloro-2-trifluoromethylphenyl-N'-(6-tert-butoxycarbonylamino-3,4-dihydro-2,2-dimethyl-2H-1-benzopyran-4-yl)urea], the IC50 in assay [1] was determined as 38 µM; in assay [2] it was 30 µM; in assay [5], 34 µM. The “QVM Class” value in assay [6] is “II (Class II: cytostatic but becomes cytotoxic with < 10% cell death on the 2nd day and > 20% of cell death on the 3rd day)”.
Consider `CC(C)(C)OC(=O)Nc1ccc2c(c1)C(NC(=O)Nc1ccc(Br)cc1)CC(C)(C)O2` (racemic) [Example 34, R/S-N-4-bromophenyl-N'-(6-tert-butoxycarbonylamino-3,4-dihydro-2,2-dimethyl-2H-1-benzopyran-4-yl)urea], for which the IC50 in assay [1] was determined as 21 µM; in assay [2], 21 µM; in assay [5], 22 µM. In assay [6], the “QVM Class” value is “III (Class III: cytostatic but rapidly becomes cytotoxic with < 10% cell death on the 1st day, > 20% of cell death on the 2nd day and > 50% of cell death on the 3rd day)”.
Consider `CC(C)(C)OC(=O)Nc1ccc2c(c1)C(NC(=O)Nc1cc(C(F)(F)F)ccc1Cl)CC(C)(C)O2` (racemic) [Example 31, R/S-N-2-chloro-5-trifluoromethylphenyl-N'-(6-tert-butoxycarbonylamino-3,4-dihydro-2,2-dimethyl-2H-1-benzopyran-4-yl)urea], for which the IC50 in assay [1] came out at 38 µM; in assay [2], 12 µM; in assay [5], 15 µM. For the same compound, the “QVM Class” value in assay [6] was “II (Class II: cytostatic but becomes cytotoxic with < 10% cell death on the 2nd day and > 20% of cell death on the 3rd day)”.

These data come from patent EP2487171A1, “Dihydrobenzopyran, thiochroman, tetrahydroquinoleine and tetrahydronaphthalene derivatives and their use in anti-cancer therapy” (Université de Liège, priority 2011, dated 2012).
